# Measured values published in ChEMBL document CHEMBL1122438, “2-Phenylpyrazolo[1,5-a]pyrimidin-7-ones. A new class of nonsteroidal antiinflammatory drugs devoid of ulcerogenic activity” (J Med Chem, 1983).
# Calls of active or inactive are those of the source. No cut-off for these calls is given here.
# Experiments:
# Mus musculus [1] = assay: Analgesic activity evaluated by measuring % analgesic effect, after oral administration of 80 mg/kg in acetic acid writhing test; format: functional
# Mus musculus [2] = assay: (§1) Analgesic activity evaluated by measuring % analgesic effect, after oral administration of 120 mg/kg in acetic acid writhing test; format: functional
# [3] = Therapeutic index was expressed as LD50/ED50 carragreenin model; settings: mouse; read-out: TI
# Rattus norvegicus [4] = assay: Antiinflammatory activity evaluated by measuring % reduction of edema, 3h after oral administration of 100 mg/kg in carrageenan model; format: functional
# Mus musculus [5] = assay: […] toxicity was evaluated (number of mice died after 72nd hour when 150 mg/kg is administered intraperitoneally; format: organism-based; set-up: dose 150 mg/kg, route intraperitoneal; settings: in vivo, ip
# Rattus norvegicus [6] = assay: Antiinflammatory activity evaluated by measuring % reduction of edema, 3h after oral administration of 25 mg/kg in carrageenan model; format: functional
# Rattus norvegicus [7] = organism: Rattus norvegicus; assay: Antiinflammatory activity in carrageenan model, activity is expressed as ED50 values; format: functional
# Rattus norvegicus [8] = assay: Antiinflammatory activity evaluated by measuring % reduction of edema, 3h after oral administration of 10 mg/kg in carrageenan model; format: functional
# Mus musculus [9] = assay: Acute toxicity was evaluated as number of mice (tested=7) died after 72nd hour when 115 mg/kg is administered intraperitoneally; format: organism-based; set-up: dose 115 mg/kg, route intraperitoneal; settings: in vivo, ip
# Mus musculus [10] = assay: Acute toxicity was evaluated as number of mice (tested=7) died after 72nd hour when 120 mg/kg is administered intraperitoneally; format: organism-based; set-up: dose 120 mg/kg, route intraperitoneal; settings: in vivo, ip
# Mus musculus [11] = assay: Percent reduction of edema in mice 3h after oral administration of 30 mg/kg in carrageenan model; format: functional
# Mus musculus [12] = assay: Acute toxicity was evaluated as number of mice (tested=7) died after 72nd hour when 100 mg/kg is administered intraperitoneally; format: organism-based; set-up: dose 100 mg/kg, route intraperitoneal; settings: in vivo, ip
# Rattus norvegicus [13] = organism: Rattus norvegicus; assay: Ulcer index of the compound; format: functional
# Mus musculus [14] = organism: Mus musculus; assay: Analgesic activity in acetic acid writhing test, activity is expressed as ED50 values; format: functional
# Mus musculus [15] = assay: Acute toxicity was evaluated as number of mice (tested=7) died after 72nd hour when 130 mg/kg is administered intraperitoneally; format: organism-based; set-up: dose 130 mg/kg, route intraperitoneal; settings: in vivo, ip
# Rattus norvegicus [16] = assay: Percent reduction of edema in rat on 23rd day after oral administration of 30 mg/kg in antiarthritis assay; format: functional
# Mus musculus [17] = assay: Analgesic activity evaluated by measuring % analgesic effect, after oral administration of 60 mg/kg in acetic acid writhing test; format: functional
# [18] = Toxic activity is expressed as LD50 values; format: toxicity, organism-based; settings: mouse, in vivo
# Mus musculus [19] = assay: Analgesic activity evaluated by measuring % analgesic effect, after oral administration of 15 mg/kg in acetic acid writhing test; format: functional
# Mus musculus [20] = assay: Analgesic activity evaluated by measuring % analgesic effect, after oral administration of 30 mg/kg in acetic acid writhing test; format: functional
# Mus musculus [21] = assay: Analgesic activity evaluated by measuring % analgesic effect, after oral administration of 0.3 mg/kg in acetic acid writhing test; format: functional
# Mus musculus [22] = assay: Acute toxicity was evaluated as number of mice (tested=7) died after 72nd hour when 250 mg/kg is administered intraperitoneally; format: organism-based; set-up: dose 250 mg/kg, route intraperitoneal; settings: in vivo, ip
# Mus musculus [23] = assay: Analgesic activity evaluated by measuring % analgesic effect, after oral administration of 5 mg/kg in acetic acid writhing test; format: functional
# Mus musculus [24] = assay: Acute toxicity was evaluated as number of mice (tested=7) died after 72nd hour when 260 mg/kg is administered intraperitoneally; format: organism-based; set-up: dose 260 mg/kg, route intraperitoneal; settings: in vivo, ip
# Mus musculus [25] = assay: Acute toxicity was evaluated as number of mice (tested=7) died after 72nd hour when 200 mg/kg is administered intraperitoneally; format: organism-based; set-up: dose 200 mg/kg, route intraperitoneal; settings: in vivo, ip
# Mus musculus [26] = assay: Acute toxicity was evaluated as number of mice (tested=7) died after 72nd hour when 270 mg/kg is administered intraperitoneally; format: organism-based; set-up: dose 270 mg/kg, route intraperitoneal; settings: in vivo, ip
# Mus musculus [27] = assay: Percent reduction of edema in mice 3h after oral administration of 17 mg/kg in carrageenan model; format: functional
# Mus musculus [28] = assay: Acute toxicity was evaluated as number of mice (tested=7) died after 72nd hour when 280 mg/kg is administered intraperitoneally; format: organism-based; set-up: dose 280 mg/kg, route intraperitoneal; settings: in vivo, ip
# Rattus norvegicus [29] = assay: Percent reduction of edema in rat on 23rd day after oral administration of 20 mg/kg in antiarthritis assay; format: functional
# Mus musculus [30] = assay: Percent reduction of edema in mice 3h after oral administration of 20 mg/kg in carrageenan model; format: functional
# Mus musculus [31] = assay: Percent reduction of edema in mice 3h after oral administration of 300 mg/kg in carrageenan model; format: functional
# Rattus norvegicus [32] = assay: Percent reduction of edema in rat on 23rd day after oral administration of 300 mg/kg in antiarthritis assay; i = Inactive; format: functional, organism-based; set-up: dose 300 mg/kg; settings: at 300 mg/kg
# Mus musculus [33] = assay: Percent reduction of edema in mice 3h after oral administration of 50 mg/kg in carrageenan model; format: functional
# Rattus norvegicus [34] = assay: Percent reduction of edema in rat on 23rd day after oral administration of 50 mg/kg in antiarthritis assay; i = Inactive; format: functional, organism-based; set-up: dose 50 mg/kg; settings: at 50 mg/kg
# Rattus norvegicus [35] = assay: Percent reduction of edema in rat on 23rd day after oral administration of 30 mg/kg in antiarthritis assay; i = Inactive; format: functional, organism-based; set-up: dose 30 mg/kg; settings: at 30 mg/kg
# Mus musculus [36] = assay: Acute toxicity was evaluated as number of mice died (tested = 7) after 72nd hour when 8 mg/kg is administered intraperitoneally; format: organism-based; set-up: dose 8 mg/kg, route intraperitoneal; settings: in vivo, ip
# Mus musculus [37] = assay: Percent reduction of edema in mice 3h after oral administration of 3 mg/kg in carrageenan model; format: functional
# Rattus norvegicus [38] = assay: as §1; format: functional
# Rattus norvegicus [39] = assay: Percent reduction of edema in rat on 23rd day after oral administration of 3 mg/kg in antiarthritis assay; format: functional
# Rattus norvegicus [40] = assay: Ulcer index at 30 mg/kg concentration; format: functional
# Rattus norvegicus [41] = assay: Analgesic activity evaluated by measuring % analgesic effect, after oral administration of 3.0 mg/kg in acetic acid writhing test; format: functional
# Rattus norvegicus [42] = assay: Analgesic activity evaluated by measuring % analgesic effect, after oral administration of 1.0 mg/kg in acetic acid writhing test; format: functional
# Mus musculus [43] = assay: Acute toxicity was evaluated as number of mice died (tested = 7) after 72nd hour when 75 mg/kg is administered intraperitoneally; format: organism-based; set-up: dose 75 mg/kg, route intraperitoneal; settings: in vivo, ip
# Rattus norvegicus [44] = assay: Antiinflammatory activity evaluated by measuring % reduction of edema, 3h after oral administration of 5 mg/kg in carrageenan model; format: functional
# Mus musculus [45] = assay: Acute toxicity was evaluated as number of mice died (tested = 7) after 72nd hour when 12 mg/kg is administered intraperitoneally; format: organism-based; set-up: dose 12 mg/kg, route intraperitoneal; settings: in vivo, ip
# Mus musculus [46] = assay: Acute toxicity was evaluated as number of mice died (tested = 7) after 72nd hour when 15 mg/kg is administered intraperitoneally; format: organism-based; set-up: dose 15 mg/kg, route intraperitoneal; settings: in vivo, ip
# Rattus norvegicus [47] = assay: Ulcer index at 50 mg/kg concentration; format: functional
# Rattus norvegicus [48] = assay: Antiinflammatory activity evaluated by measuring % reduction of edema, 3h after oral administration of 1 mg/kg in carrageenan model; format: functional
# Rattus norvegicus [49] = assay: Ulcer index at 5 mg/kg concentration; format: functional
# Rattus norvegicus [50] = assay: Median ulcerogenic dose was determined at 30 mg/kg dose; format: functional
# Rattus norvegicus [51] = assay: Percent reduction of edema in rat on 23rd day after oral administration of 20 mg/kg in antiarthritis assay; i = Inactive; format: functional, organism-based; set-up: dose 20 mg/kg; settings: at 20 mg/kg
compound,measurement,setting,value
Cn1ccc(=O)n2nc(-c3ccccc3)cc12,Analgesic effect,Mus musculus [1],53.3%
same,Analgesic effect,Mus musculus [2],80.7%
same,selectivity ratio,[3],5.13
same,Reduction,Rattus norvegicus [4],67.5%
same,Acute toxicity,Mus musculus [5],6
same,Reduction,Rattus norvegicus [6],55.1%
same,ED50,Rattus norvegicus [7],24.7 mg/kg
same,Reduction,Rattus norvegicus [8],34.2%
same,Acute toxicity,Mus musculus [9],1
same,Acute toxicity,Mus musculus [10],3
same,Reduction,Mus musculus [11],54%
same,Acute toxicity,Mus musculus [12],0
same,UI,Rattus norvegicus [13],0.5
same,ED50,Mus musculus [14],69.6 mg/kg
same,Acute toxicity,Mus musculus [15],4
same,Reduction,Rattus norvegicus [16],29.8%
same,Analgesic effect,Mus musculus [17],43%
same,LD50,[18],127 mg/kg
CCn1ccc(=O)n2nc(-c3ccccc3)cc12,selectivity ratio,[3],37.1
same,Analgesic effect,Mus musculus [19],69.3%
same,Analgesic effect,Mus musculus [20],84.3%
same,Reduction,Rattus norvegicus [4],90.1%
same,Analgesic effect,Mus musculus [21],20%
same,Acute toxicity,Mus musculus [22],1
same,Analgesic effect,Mus musculus [23],24.5%
same,Reduction,Rattus norvegicus [6],69.8%
same,ED50,Rattus norvegicus [7],7.3 mg/kg
same,Reduction,Rattus norvegicus [8],54.1%
same,Acute toxicity,Mus musculus [24],2
same,Acute toxicity,Mus musculus [25],0
same,UI,Rattus norvegicus [13],0.15
same,Acute toxicity,Mus musculus [26],3
same,ED50,Mus musculus [14],9.86 mg/kg
same,Reduction,Mus musculus [27],54.1%
same,Reduction,Rattus norvegicus [16],42.7%
same,Acute toxicity,Mus musculus [28],5
same,LD50,[18],271 mg/kg
O=c1ccn(Cc2ccccc2)c2cc(-c3ccccc3)nn12,Reduction,Rattus norvegicus [29],18.2%
same,Reduction,Mus musculus [30],5.8%
Oc1ccnc2cc(-c3ccccc3)nn12,Reduction,Mus musculus [31],27.3%
same,Reduction,Rattus norvegicus [32],inactive
Cc1cc(=O)n2nc(-c3ccccc3)cc2n1C,Reduction,Mus musculus [33],56.7%
same,Reduction,Rattus norvegicus [34],inactive
O=c1ccn(CCO)c2cc(-c3ccccc3)nn12,Reduction,Rattus norvegicus [35],inactive
same,Reduction,Mus musculus [11],16.5%
COc1ccc2c(c1)c(CC(=O)O)c(C)n2C(=O)c1ccc(Cl)cc1 [INDOMETHACIN],Acute toxicity,Mus musculus [36],1
same,Reduction,Mus musculus [37],62.4%
same,Analgesic effect,Rattus norvegicus [38],28.4%
same,selectivity ratio,[3],10.9
same,Reduction,Rattus norvegicus [39],39%
same,UI,Rattus norvegicus [40],2.36
same,Analgesic effect,Rattus norvegicus [41],57%
same,Analgesic effect,Rattus norvegicus [42],28%
same,ED50,Rattus norvegicus [7],1.83 mg/kg
same,Acute toxicity,Mus musculus [43],7
same,Reduction,Rattus norvegicus [44],69.2%
same,Acute toxicity,Mus musculus [45],2
same,Acute toxicity,Mus musculus [46],3
same,UI,Rattus norvegicus [47],3.3
same,Reduction,Rattus norvegicus [48],36.7%
same,UI,Rattus norvegicus [49],1.4
same,ED50,Mus musculus [14],2.5 mg/kg
same,UD50,Rattus norvegicus [50],12.1 mg/kg
same,LD50,[18],19.9 mg/kg
CCCCn1ccc(=O)n2nc(-c3ccccc3)cc12,Reduction,Rattus norvegicus [29],59.8%
same,Reduction,Mus musculus [30],26.6%
Cn1ccc(=O)n2nccc12,Reduction,Rattus norvegicus [51],inactive
same,Reduction,Mus musculus [30],0%
CC(C)n1ccc(=O)n2nc(-c3ccccc3)cc12,Reduction,Rattus norvegicus [51],inactive
same,Reduction,Mus musculus [30],3.5%
CCOC(Cn1ccc(=O)n2nc(-c3ccccc3)cc12)OCC,Reduction,Rattus norvegicus [51],inactive
same,Reduction,Mus musculus [30],12.5%
CCCn1c(=O)ccn2nc(-c3ccccc3)cc12,Reduction,Rattus norvegicus [35],inactive
same,Reduction,Mus musculus [11],18.9%
